The source of these data is patent publication US7288558B2, “Pharmaceutical composition for treatment for urinary diseases comprising LPA receptor regulator” (Ono Pharmaceuticals Co., Ltd., priority 2001, dated 2007).

Test [1] deals with urethra. Nature of the test: Measurement of urethral pressure by drugs in pithed male rats, i.v. The test is classed as in vivo, rat. The arrangement: key to urethral pressure: ↑: increase; (—): no effect. As to conditions: for urethral pressure / urethral pressure (increase): male pithed rats; for urethral pressure: class symbol; for intraurethral pressure: 1 mg/kg i.v. How it is done: Male CD(SD)IGS rats (Charles River Japan Inc., 8-9 week-old in use) were anesthetized by intraperitoneal administration of sodium pentbarbital (50 mg/kg). After incision of cervical median, broncho cannula and arterial catheter were inserted. The measurement of blood pressure was started via arterial catheter and subsequently a stainless-steel rod was inserted into the spinal column through the orbit and foramen magnum for the destruction of the spinal cord. The broncho cannula was connected to the artificial breathing device for small animals (SN-480-7, Shinano, Tokyo, Japan) immediately and the animals were ventilated artificially with room air in a tidal volume of 6 mL/kg body weight at a rate of 70 breaths/min. After confirming the gentle decrease of blood pressure and stabilization of the blood pressure at the low level indicating a success of destruction of the spinal cord, intravenous catheter was inserted into femoral vein for drug administration. Urinary bladder was exposed by incision of hypogastrium median and urethra was tied off in the vicinity of pubic bone. Urethra catheter was inserted into urethra through dome of urinary bladder and fixed by ligation at the bladder neck. Urethra catheter was connected to the pressure transducer and urethral pressure was measured. Subsequently, urethral pressure was adjusted about 20 mmHg and left for about 1 hour. After it was confirmed stability of urethral pressure, and subsequently 10 μg/kg/0.5 ml phenylephrine was administrated and it was confirmed that urethral pressure increased. Various drugs included 18:3-LPA were estimated 0.5 ml/kg in the same way.

Test [2] concerns isolated urethral preparations. The experiment in a line: Measurement of urethra contraction, isolated female rat urethral preparations (Magnus tube). It counts as cell-based. From the text: After sacrificing female CD(SD)IGS rats (Charles River Japan Inc., 8-9 week-old in use) by blowing heads and exsanguinating from jugular vein, urethra under pubis was isolated carefully and soaked in Krebs-Henseleit solution (112 mmol/L NaCl, 5.9 mmol/L KCl, 2.0 mmol/L CaCl2, 1.2 mmol/L MgCl2, 1.2 mmol/L NaH2PO4, 25.0 mmol/L NaHCO3, 11.5 mmol/L glucose) immediately. Urethra part was cut from isolated sample, and was dissected in flat and subsequently was cut parallel to circular muscle. Thus, 2-3 strips of sample that are 3-4 mm long by 2-3 mm wide were made.
(§1) The made samples were suspended in the Magnus tube (volume: 10 mL) filled by Krebs-Henseleit solution (vented by 37±1° C., mixed gas [95% O2+5% CO2]). The samples were added about 0.5 g tension and stabilized for 60 min, and subsequently the contractile activity was recorded on recorder (linearcoder WR3320: GRAPHTEC CORP., thermal pen-writing recorder RJG-4128: Nihon Kohden Ltd) via a pressure amplifier (AP-641G, AP-601G, Nihon Kohden Ltd) from isometric transducer (Force displacement transducer) (FD pick-up TB-611T: Nihon Kohden Ltd).
The contractile reaction of control was given by stimulation of high concentration KCl solution (solution replaced all NaCl with KCl). By the addition of LPA and phenylephrine (comparison compound: α agonist) cumulatively, dose-dependency of urethra contraction was measured. […]

In test [3] the test system is isolated prostatic preparations. Nature of the test: Contractile test of isolated prostate, male rats (Magnus tube). The test is classed as cell-based. The conditions noted are these: isolated male rat prostate.
Excerpt: After sacrificing male CD(SD)IGS rats (Charles River Japan Inc., 8-9 week-old in use) by blowing heads and exsanguinating from jugular vein, prostate was isolated and soaked in iced Krebs-Henseleit solution (112 mmol/L NaCl, 5.9 mmol/L KCl, 2.0 mmol/L CaCl2, 1.2 mmol/L MgCl2, 1.2 mmol/L NaH2PO4, 25.0 mmol/L NaHCO3, 11.5 mmol/L glucose) immediately. Prostate was separated right-and-left part from isolated sample, fatty tissue was removed and longitudinal strips (2 to 3 strips) were isolated from a prostate lobe.
as §1, with “were” for “were added about 0.5 g tension and”, “min and added about 0.5-1 g tension,” for “min,”, “AP-601G:” for “AP-601G,”, “Ltd). 0.01-10 μM phenylephrine was added in Magnus tube. The contraction by 10 μM phenylephrine is the contractile reaction of control. […] After the samples were suspended, it was washed over and over, opportunity. […]” for “Ltd).”

A further test has as its system micturition. The experiment in a line: Cystometry in anesthetized female rats with intravenous infusion of LPA. It counts as in vivo, rat. The conditions noted are these: infusion rate 15 mg/kg/hr/3 mL i.v. From the text:
Female CD(Sprague-Dawley)IGS rats (Charles River Japan Inc., 12 to 13 weeks old in use) were anesthetized with an s.c. administration of urethane (1.2 g/kg) and placed in a supine position and the bladder and proximal urethra were exposed through a midline abdominal incision. The ureters were tied with silk suture distally and cut. Bladder was exposed and a polyethylene catheter (JMS cutdown tube, C3) was inserted through the bladder dome and secured with a ligature. The other side of the catheter was connected to a pressure transducer through two T tubes to measure intravesical pressure. Another side of T tubes was connected to an infusion pump for performing cystometrograms (the other side of T tube was connected to a syringe). The carotid artery was cannulated to measure blood pressure and the jugular vein was cannulated to administration of the test compounds. Rats in which the above mentioned operation was performed were placed to 37° C. thermostat plate and citric acid solution (pH4.0) or saline were infused into bladder at the rate of 2.85 mL/hr. After cystometrograms show rhythmic reflex saline was infused via jugular vein at the infusion rate of 3 mL/kg/hr. After an appropriate time 18:3-LPA prepared with 5 mg/mL was infused at the infusion rate of 3 mL/kg/hr. After the 18:3-LPA infusion was stopped saline was infused again. […]

A further test deals with colon and ileum. As to conditions: rats, literature; cited from earlier work.
The subject of test [4] is LPA dependent contraction in rat isolated urethra. Nature of the test: Inhibitory activity for LPA dependent contraction in rat isolated urethra. The test is classed as cell-based. As to conditions: isolated male rat urethra, 10 μM LPA. From the text: Male CD(SD)IGS rats (Charles River Japan Inc., 8-9 week-old in use) anesthetized by diethyl ether were sacrificed by taking blood from the descending aorta, and subsequently urethra under pubis was isolated with urinary bladder and vesicular gland carefully and soaked in Krebs-Henseleit solution (112 mmol/L NaCl, 5.9 mmol/L KCl, 2.0 mmol/L CaCl2, 1.2 mmol/L MgCl2, 1.2 mmol/L NaH2PO4, 25.0 mmol/L NaHCO3, 11.5 mmol/L glucose) immediately. Urethra was cut from extracted sample and was dissected on the side of abdominal in flat with scissors for ophthalmic surgery. Thus, the strip of sample that are 3-4 mm long by 2-3 mm wide was made. […] The samples were added about 0.5 g tension and stabilized for 60 min, and subsequently the contractile activity was recorded on recorder (linearcoder WR3320: GRAPHTEC CORP., thermal pen-writing recorder RJG-4128: Nihon Kohden Ltd) via a pressure amplifier (AP-641G, AP-601G, Nihon Kohden Ltd) from Force displacement transducer (FD pick-up TB-611T: Nihon Kohden Ltd). […]
In other words, the isolated urethra was stimulated repeatedly by 10 μM LPA until a constant response was attained. […] Then the urethral contraction was monitored (post value). The inhibitory activity of compound A was calculated as the inhibition (%)={1-(post value)/(pre value)}×100. […]

Test [5] relates to urethra. Nature of the test: Rat urethral pressure in vivo after intravenous compound A. The conditions noted are these: male rats, 3 mg/kg i.v. From the text:
Male CD(SD)IGS rats (Charles River Japan Inc., 8-9 week-old in use) were anesthetized by subcutaneous administration of 1.2 g/kg urethane. After incision of cervical median, jugular vein catheter for administration of compound and arterial catheter for measurement of blood pressure were inserted. Subsequently, an incision in the hypogastrium median was made and urethra was tied off in the vicinity of pubic bone. Urethral catheter was inserted into urethra by cutting open dome of urinary bladder and fixed by ligation in of the bladder neck. Another end of urethral catheter was connected to the pressure transducer and urethral pressure was measured. Urethral pressure was adjusted about 20 mmHg and left at rest until it was stabilized (for about 20 minutes). Subsequently, compound A was administrated intravenously and blood pressure and urethral pressure were measured for 20 minutes, and then in order to monitor the base-line value of the intraurethral pressure 1 mL of pentobarbital was intraveniously injected. After the intraurethral pressure was decreased to the prolonged plateau, it was estimated as a base-line value. Compound A was administrated intraveniously (3 mg/kg, 1 mL/kg). Vehicle was confirmed as 10% DMSO-90% rat plasma solution. […]

In another test the target is EDG-2 (Homo sapiens, UniProt Q92633). As to conditions: EDG-2 over-expressed cell, specification of WO01/60819; cited from earlier work.
Sequence of EDG-2 (Q92633 whole entry): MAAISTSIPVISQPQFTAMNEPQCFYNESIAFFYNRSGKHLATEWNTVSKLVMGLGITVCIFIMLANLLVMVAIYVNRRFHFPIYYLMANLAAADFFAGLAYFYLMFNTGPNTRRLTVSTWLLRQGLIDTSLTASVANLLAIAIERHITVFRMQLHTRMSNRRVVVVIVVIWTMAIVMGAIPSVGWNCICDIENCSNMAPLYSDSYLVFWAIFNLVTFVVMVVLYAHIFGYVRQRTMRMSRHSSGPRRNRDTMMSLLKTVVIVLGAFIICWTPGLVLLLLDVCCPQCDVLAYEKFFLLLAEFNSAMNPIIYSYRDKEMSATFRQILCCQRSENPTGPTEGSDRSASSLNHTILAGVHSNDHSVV

As for `CC/C=C\C/C=C\C/C=C\CCCCCCCC(=O)OCC(O)CO` (centres unmarked) [1-monolinolenoyl (18:3)-glycerol], the urethral pressure result in the test with urethra [1] (dose 1 mg/kg i.v.) is “—”. In addition, the intraurethral pressure result in the test on urethra [1] (pithed rat, in words) is recorded as “hardly increase”.
Consider `CC/C=C\C/C=C\C/C=C\CCCCCCCC(=O)OC[C@@H](O)COP(=O)(O)O` [18:3-LPA, 1-Linolenoyl lysophosphatidic acid], for which, in test [2], the “desensitization of urethral contraction” value was “desensitization was not caused”. For the same compound, the “intensity of contraction of urethra compared with phenylephrine” value in test [2] (cumulative addition, FIG. 1) is on record as “more potent”. Further, the “desensitization of prostate contraction” value in test [3] is given as “desensitization was caused”. Moreover, in test [3] (organ bath in vitro, FIG. 2), the “contraction of isolated prostate” value is “contracts isolated urethra and prostate”. Also, the entries for the “urethral pressure (increase)” value in the test on urethra [1] (dose 10 μg/kg i.v.), in the test with urethra [1] (dose 100 μg/kg i.v.) and in the test on urethra [1] (dose 1 mg/kg i.v.) were 3.0 mmHg, 9.0 mmHg and 15.5 mmHg, respectively. Besides, the “intraurethral pressure, dose dependency” value in the test on urethra [1] (pithed rat, intravenous injection, in words) is on record as “increased the intraurethral pressure in a dose-dependent manner”. Besides, the “micturition pressure versus infusion of saline” value with micturition was “increased”. Moreover, the “intercontraction interval versus saline infusion” value in the test with micturition (FIG. 6) is “shorter”. Further, the “activity for the contraction of colon and ileum” value (shortened to “activity for the contraction”) in the test with colon and ileum is “most potent activity”.
As for `CCCCCCCCCCCCCCCC(=O)OCC(O)COP(=O)(O)O` (centres unmarked) [(16:0)-LPA, 1-palmitoyl lysophosphatidic acid], the “activity for the contraction” value in the test with colon and ileum is on record as “also have the activity”.
Turning to `CCCCC/C=C\C/C=C\CCCCCCCC(=O)OC[C@@H](O)COP(=O)(O)O` [(18:2)-LPA, 1-linoleoyl lysophosphatidic acid], the “activity for the contraction” value in the test with colon and ileum is given as “also have the activity”.
As to `CNC[C@H](O)c1cccc(O)c1` [L-phenylephrine], in the test with urethra [1] (dose 10 μg/kg i.v.), the “urethral pressure (increase)” value is 7.5 mmHg.
For `CC/C=C\C/C=C\C/C=C\CCCCCCCC(=O)OC[C@@H](O)COP(=O)([O-])OCC[N+](C)(C)C` [LPC (18:3), 1-linolenoyl (18:3)-LPC (lysophosphatidyl choline)], the urethral pressure entry with urethra [1] (dose 1 mg/kg i.v.) is given as “—”. For the same compound, the intraurethral pressure result in the test with urethra [1] (pithed rat, in words) was “hardly increase”.
As to `COC(=O)CCSCc1ccc(-c2onc(C)c2NC(=O)OC(C)c2ccccc2Cl)cc1` (centres unmarked) [compound A, methyl 3-({4-[4-({[1-(2-chlorophenyl)ethoxy]carbonyl}amino)-3-methyl-5-isoxazolyl]benzyl}sulfanyl)propanoate], in test [4] (0.5 h, 30 min incubation at 37° C., read-out: 50% inhibitory concentration (IC50) for urethral contraction by LPA), the IC50 was determined as 70 nM. The “inhibition of urethral contraction by LPA” value in test [4] (in words) is listed as “inhibited the urethral contraction by LPA, dose-dependently”. Also, the “maximal amounts of the decreasing intraurethral pressure, of an absolute value (pressure before injection minus base-line value)” value in the test on urethra [5] is given as “about 50%”. Also, in the test with urethra [5] (urethane anesthesia, versus vehicle, FIG. 5), the intraurethral pressure entry is given as “greatly decreased”. The “LPA receptor (EDG-2) antagonistic activity” value on EDG-2 was “potent EDG-2 antagonistic activity”.
